{"source": "BigSolDB 2.1", "data": [{"molecule": "O=c1[nH]c2ccccc2n1CCCN1CCC(n2c(=O)[nH]c3cc(Cl)ccc32)CC1", "values": [{"measurement": "solubility (mole fraction)", "setting": "in DMF, 323.15 K", "value": 0.000679}, {"measurement": "solubility (mole fraction)", "setting": "in DMF, 328.15 K", "value": 0.000791}, {"measurement": "solubility (mole fraction)", "setting": "in DMF, 333.15 K", "value": 0.000911}, {"measurement": "solubility (mole fraction)", "setting": "in DMSO, 323.15 K", "value": 0.00142}, {"measurement": "solubility (mole fraction)", "setting": "in DMSO, 328.15 K", "value": 0.00171}, {"measurement": "solubility (mole fraction)", "setting": "in DMSO, 333.15 K", "value": 0.00209}, {"measurement": "solubility (mole fraction)", "setting": "in isopropanol, 293.15 K", "value": "1.85e-05"}, {"measurement": "solubility (mole fraction)", "setting": "in isopropanol, 298.15 K", "value": "2.29e-05"}, {"measurement": "solubility (mole fraction)", "setting": "in isopropanol, 323.15 K", "value": "6.48e-05"}, {"measurement": "solubility (mole fraction)", "setting": "in isopropanol, 328.15 K", "value": "7.7e-05"}, {"measurement": "solubility (mole fraction)", "setting": "in isopropanol, 333.15 K", "value": "8.99e-05"}, {"measurement": "solubility (mole fraction)", "setting": "in water, 323.15 K", "value": "6.38e-07"}, {"measurement": "solubility (mole fraction)", "setting": "in water, 328.15 K", "value": "7.73e-07"}, {"measurement": "solubility (mole fraction)", "setting": "in water, 333.15 K", "value": "9.34e-07"}]}]}
